Source: patent publication US7915276B2, “Berberrubine derivatives having antifungal activities” (priority 2006, dated 2011)

What was measured:
[1] = biological target: T1, chitin synthase 1 of Candida albicans chs2 Δ chs 3 Δ (Candida albicans, UniProt P23316); assay: In vitro enzyme assay for chitin synthase 1 of Candida albicans (enzyme 1); format: biochemical; settings: relative to polyoxin D (50% inhibitory activity = value 5)
T1 construct: Crude enzyme was prepared using the Candida albicans chs2 Δ chs 3 Δ mutant; endogenous in cells; host or cells: Candida albicans chs2Δ/chs2Δ chs3Δ/chs3Δ mutant; 130,000 x g membrane pellet
Outline: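 Trypsin-activated crude membrane chitin synthase 1 from C. albicans chs2Δ chs3Δ was incubated 90 min at 30 °C with 1.1 mM UDP-[14C]GlcNAc and 2 mM cobalt acetate in Tris-HCl pH 7.5. Filtered TCA precipitate was counted by scintillation; values are scores 1–8 against polyoxin D (5 = same concentration).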

[2] = biological target: T2, chitin synthase 2 of Saccharomyces cerevisiae ECY38-38A(pAS6) (Saccharomyces cerevisiae, UniProt P14180); assay: In vitro enzyme assay for chitin synthase 2 of Saccharomyces cerevisiae (enzyme 2); format: biochemical; settings: relative to polyoxin D (50% inhibitory activity = value 5)
T2 construct: made in house; host or cells: Saccharomyces cerevisiae ECY38-38A (chs1-23 chs2::LEU2 cal1/csd2) carrying plasmid pAS6, grown in galactose medium; 130,000 x g membrane pellet
Outline: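 Values are scores: 5 means 50% inhibition at the same concentration as polyoxin D, lower scores 2- to 16-fold higher concentration, higher scores ½ to ⅛. Radiolabel from 1.1 mM UDP-[14C]-GlcNAc was incorporated into TCA-insoluble chitin over 90 min at 30 °C (pH 7.5 Tris, 2 mM Co2+). The enzyme was a trypsin-activated membrane fraction from CHS2-only S. cerevisiae ECY38-38A(pAS6).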

[3] = test system: Candida parapsilosis ATCC 34136; assay: In vitro antifungal activity (MIC), NCCLS method; format: cell-based; settings: Candida parapsilosis ATCC 34136; 48 hours
Source text: (§1) Candida albicans ATCC 10231, Candida lusitaniae ATCC 42720, Candida krusei ATCC 6258, Candida tropicalis ATCC 13803, Candida glabrata ATCC 48435, Candida parapsilosis ATCC 34136, Cryptococcus neoformans ATCC 36556, Aspergillus fumigatus ATCC 16424, Aspergillus flavus ATCC 64025, Aspergillus terreus ATCC 46941 and Mucor ramosissimus ATCC 90286 strains for the MIC (minimum inhibitory concentration) measurement were obtained from ATCC (American Type Culture Collection) in the U.S. The Candida albicans A207(clinical isolate) strain was used by isolating it from the patients.
(§2) The determination of MIC was performed according to the NCCLS (National Committee for Clinical Laboratory Standard) method. Each test sample solution was diluted two-fold and inoculated with a fungal suspension to reach a final inoculum size of 5×10^2 to 2.5×10^3 cell/mL. The Cryptococcus neoformans strain was cultured in the RPMI 1640 medium for 72 hours. Other strains were cultured for 48 hours.

[4] = test system: Aspergillus fumigatus ATCC 16424; assay: In vitro antifungal activity (MIC), NCCLS method; format: cell-based; settings: 48 hours
Source text: as §1, §2

[5] = test system: Cryptococcus neoformans ATCC 36556; assay: In vitro antifungal activity (MIC), NCCLS method; format: cell-based; settings: RPMI 1640 medium, 72 hours
Source text: as §1, §2

[6] = test system: Candida albicans A207 (clinical isolate); assay: In vitro antifungal activity (MIC), NCCLS method; format: cell-based; settings: 48 hours
Source text: as §1, §2

[7] = test system: Candida albicans ATCC 10231; assay: In vitro antifungal activity (MIC), NCCLS method; format: cell-based; settings: 48 hours
Source text: as §1, §2

[8] = test system: Aspergillus terreus ATCC 46941; assay: In vitro antifungal activity (MIC), NCCLS method; format: cell-based; settings: 48 hours
Source text: as §1, §2

[9] = test system: Candida lusitaniae ATCC 42720; assay: In vitro antifungal activity (MIC), NCCLS method; format: cell-based; settings: 48 hours
Source text: as §1, §2

[10] = test system: Candida krusei ATCC 6258; assay: In vitro antifungal activity (MIC), NCCLS method; format: cell-based; settings: 48 hours
Source text: as §1, §2

[11] = test system: Aspergillus flavus ATCC 64025; assay: In vitro antifungal activity (MIC), NCCLS method; format: cell-based; settings: 48 hours
Source text: as §1, §2

[12] = test system: Candida glabrata ATCC 48435; assay: In vitro antifungal activity (MIC), NCCLS method; format: cell-based; settings: Candida glabrata ATCC 48435; 48 hours
Source text: as §1, §2

[13] = test system: Mucor ramosissimus ATCC 90286; assay: In vitro antifungal activity (MIC), NCCLS method; format: cell-based; settings: 48 hours
Source text: as §1, §2

[14] = test system: Candida tropicalis ATCC 13803; assay: In vitro antifungal activity (MIC), NCCLS method; format: cell-based; settings: 48 hours
Source text: as §1, §2

T1 sequence (P23316 whole entry, stated change not applied): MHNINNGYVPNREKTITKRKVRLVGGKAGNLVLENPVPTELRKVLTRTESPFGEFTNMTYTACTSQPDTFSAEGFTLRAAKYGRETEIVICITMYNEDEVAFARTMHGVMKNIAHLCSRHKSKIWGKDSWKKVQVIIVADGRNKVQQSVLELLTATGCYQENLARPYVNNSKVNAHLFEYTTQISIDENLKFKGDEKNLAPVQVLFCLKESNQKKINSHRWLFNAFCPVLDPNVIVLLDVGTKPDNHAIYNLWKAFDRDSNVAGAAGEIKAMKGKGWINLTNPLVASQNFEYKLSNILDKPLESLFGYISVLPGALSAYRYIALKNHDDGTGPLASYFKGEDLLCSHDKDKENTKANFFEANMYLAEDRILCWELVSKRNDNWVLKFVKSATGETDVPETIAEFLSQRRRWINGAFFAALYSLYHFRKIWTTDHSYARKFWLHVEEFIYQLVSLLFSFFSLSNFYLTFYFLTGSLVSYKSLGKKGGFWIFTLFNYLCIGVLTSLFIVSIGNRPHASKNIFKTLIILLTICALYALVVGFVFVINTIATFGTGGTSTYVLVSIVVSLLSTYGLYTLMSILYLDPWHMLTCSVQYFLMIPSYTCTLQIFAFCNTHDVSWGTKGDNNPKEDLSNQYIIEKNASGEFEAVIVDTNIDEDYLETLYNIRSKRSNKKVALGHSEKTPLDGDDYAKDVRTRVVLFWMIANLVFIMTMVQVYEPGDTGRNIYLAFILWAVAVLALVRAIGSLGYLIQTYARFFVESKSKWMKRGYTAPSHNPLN
T2 sequence (P14180 whole entry): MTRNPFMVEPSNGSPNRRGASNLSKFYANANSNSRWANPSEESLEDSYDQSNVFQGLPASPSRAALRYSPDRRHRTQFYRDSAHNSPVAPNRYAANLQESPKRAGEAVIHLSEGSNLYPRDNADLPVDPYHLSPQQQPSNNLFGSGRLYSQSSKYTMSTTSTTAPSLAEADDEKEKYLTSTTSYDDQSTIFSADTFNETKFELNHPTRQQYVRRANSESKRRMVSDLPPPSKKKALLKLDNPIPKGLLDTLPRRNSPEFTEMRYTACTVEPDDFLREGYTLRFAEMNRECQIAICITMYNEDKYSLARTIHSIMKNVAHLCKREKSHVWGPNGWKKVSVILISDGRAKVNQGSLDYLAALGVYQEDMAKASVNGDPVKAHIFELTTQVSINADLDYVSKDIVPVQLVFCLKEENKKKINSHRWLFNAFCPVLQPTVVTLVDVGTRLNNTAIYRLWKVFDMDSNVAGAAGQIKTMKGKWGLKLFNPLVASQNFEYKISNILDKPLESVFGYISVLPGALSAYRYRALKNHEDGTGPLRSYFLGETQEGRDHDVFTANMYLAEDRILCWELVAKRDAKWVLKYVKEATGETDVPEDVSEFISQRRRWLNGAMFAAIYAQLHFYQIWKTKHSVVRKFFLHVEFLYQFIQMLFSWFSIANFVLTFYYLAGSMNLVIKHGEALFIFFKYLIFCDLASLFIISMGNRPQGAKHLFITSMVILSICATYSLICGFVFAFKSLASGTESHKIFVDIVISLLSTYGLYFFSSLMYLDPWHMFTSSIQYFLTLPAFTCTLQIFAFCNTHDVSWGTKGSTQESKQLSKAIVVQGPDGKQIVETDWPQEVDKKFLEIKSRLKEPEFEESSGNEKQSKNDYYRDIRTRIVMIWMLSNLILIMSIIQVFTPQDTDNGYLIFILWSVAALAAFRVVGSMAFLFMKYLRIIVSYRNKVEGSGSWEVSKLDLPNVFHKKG

| Substance | Relative activity Enzyme 1 [1] | Relative activity Enzyme 2 [2] | MIC (minimum inhibitory concentration) [3] | MIC (minimum inhibitory concentration) [4] | MIC (minimum inhibitory concentration) [5] | MIC (minimum inhibitory concentration) [6] | MIC (minimum inhibitory concentration) [7] | MIC (minimum inhibitory concentration) [8] | MIC (minimum inhibitory concentration) [9] | MIC (minimum inhibitory concentration) [10] | MIC (minimum inhibitory concentration) [11] | MIC (minimum inhibitory concentration) [12] | MIC (minimum inhibitory concentration) [13] | MIC (minimum inhibitory concentration) [14] |
| --- | --- | --- | --- | --- | --- | --- | --- | --- | --- | --- | --- | --- | --- | --- |
| 13-(4-Isopropylbenzyl)-9-O-allylberberrubine iodide [Compound No. 23] | 2 (Compounds having the inhibitory activity at 2-fold, 4-fold, 8-fold and 16-fold higher concentrations than that of polyoxin D were given the values of 4, 3, 2 and 1, respectively) | 5 (A compound having the same inhibitory activity as that of polyoxin D at the same concentration was given the value 5) | 4 µg/mL | 8 µg/mL | 2 µg/mL | 1 µg/mL | 1 µg/mL | 8 µg/mL | 2 µg/mL | 2 µg/mL | 8 µg/mL | 8 µg/mL | 4 µg/mL | 1 µg/mL |
| 13-(4-Isopropylbenzyl)-9-O-crotylberberrubine bromide [Compound No. 24] | 2 (Compounds having the inhibitory activity at 2-fold, 4-fold, 8-fold and 16-fold higher concentrations than that of polyoxin D were given the values of 4, 3, 2 and 1, respectively) | 5 (A compound having the same inhibitory activity as that of polyoxin D at the same concentration was given the value 5) | 4 µg/mL | 2 µg/mL | 1 µg/mL | 0.5 µg/mL | 0.5 µg/mL | 4 µg/mL | 1 µg/mL | 1 µg/mL | 8 µg/mL | 4 µg/mL | 4 µg/mL | 0.5 µg/mL |
| 13-(4-Isopropylbenzyl)-9-O-hexylberberrubine chloride [Compound No. 51] | 3 (Compounds having the inhibitory activity at 2-fold, 4-fold, 8-fold and 16-fold higher concentrations than that of polyoxin D were given the values of 4, 3, 2 and 1, respectively) | 6 (compounds having the inhibitory activity at ½, ¼ and ⅛ lower concentrations than that of polyoxin D were given the values of 6, 7 and 8, respectively) | 2 µg/mL | 2 µg/mL | 0.5 µg/mL | 0.25 µg/mL | 0.25 µg/mL | 8 µg/mL | 0.5 µg/mL | 1 µg/mL | 8 µg/mL | 2 µg/mL | 4 µg/mL | 0.125 µg/mL |
| 13-(4-Isopropylbenzyl)-9-O-hexylberberrubine iodide [Compound No. 19] | 4 (Compounds having the inhibitory activity at 2-fold, 4-fold, 8-fold and 16-fold higher concentrations than that of polyoxin D were given the values of 4, 3, 2 and 1, respectively) | 6 (compounds having the inhibitory activity at ½, ¼ and ⅛ lower concentrations than that of polyoxin D were given the values of 6, 7 and 8, respectively) | 2 µg/mL | 2 µg/mL | 1 µg/mL | 0.25 µg/mL | 0.25 µg/mL | 8 µg/mL | 1 µg/mL | 1 µg/mL | 8 µg/mL | 2 µg/mL | 4 µg/mL | 0.125 µg/mL |
| 13-(4-Isopropylbenzyl)-9-O-octylberberrubine chloride [Compound No. 52] | 2 (Compounds having the inhibitory activity at 2-fold, 4-fold, 8-fold and 16-fold higher concentrations than that of polyoxin D were given the values of 4, 3, 2 and 1, respectively) | 6 (compounds having the inhibitory activity at ½, ¼ and ⅛ lower concentrations than that of polyoxin D were given the values of 6, 7 and 8, respectively) | 1 µg/mL | 2 µg/mL | 0.5 µg/mL | 0.25 µg/mL | 0.25 µg/mL | 4 µg/mL | 0.5 µg/mL | 1 µg/mL | 4 µg/mL | 1 µg/mL | 2 µg/mL | 0.125 µg/mL |
| 13-(4-Isopropylbenzyl)-9-O-octylberberrubine iodide [Compound No. 20] | 3 (Compounds having the inhibitory activity at 2-fold, 4-fold, 8-fold and 16-fold higher concentrations than that of polyoxin D were given the values of 4, 3, 2 and 1, respectively) | 5 (A compound having the same inhibitory activity as that of polyoxin D at the same concentration was given the value 5) | 2 µg/mL | 2 µg/mL | 1 µg/mL | 0.25 µg/mL | 0.25 µg/mL | 4 µg/mL | 0.5 µg/mL | 1 µg/mL | 4 µg/mL | 2 µg/mL | 2 µg/mL | 0.125 µg/mL |
| 13-(4-isopropylbenzyl)-9-O-crotylberberrubine chloride [Compound No. 56] | 2 (Compounds having the inhibitory activity at 2-fold, 4-fold, 8-fold and 16-fold higher concentrations than that of polyoxin D were given the values of 4, 3, 2 and 1, respectively) | 6 (compounds having the inhibitory activity at ½, ¼ and ⅛ lower concentrations than that of polyoxin D were given the values of 6, 7 and 8, respectively) | 4 µg/mL | 2 µg/mL | 1 µg/mL | 0.5 µg/mL | 0.5 µg/mL | 4 µg/mL | 1 µg/mL | 1 µg/mL | 8 µg/mL | 4 µg/mL | 4 µg/mL | 0.5 µg/mL |
